The structures appear in SMILES notation. Activity calls are given as the source filed them. The rule behind the calls is not given here.

Assay [1] concerns Mus musculus. Briefly: Antinociceptive activity in Kunming mouse model assessed as latency of tail withdrawal at 1312 nmol/kg, sc measured for 30 mins by tail-flick test relative to control. The conditions noted are these: 0.5 h. It counts as functional. For orientation: In hot-plate and tail-flick tests a longer latency is read as antinociception.
Assay [2] deals with Mus musculus. Briefly: Antinociceptive activity in Kunming mouse model assessed as latency of tail withdrawal at 1312 nmol/kg, sc measured for 120 mins by tail-flick test relative to control. In kind it is functional. The conditions noted are these: 2 h.
Assay [3] has as its system Mus musculus. In words: Antinociceptive activity in Kunming mouse model assessed as latency of tail withdrawal at 1312 nmol/kg, sc measured for 10 mins by tail-flick test relative to control. It counts as functional.
For assay [4], the system named is Mus musculus. In words: Antinociceptive activity in Kunming mouse model assessed as latency of tail withdrawal at 1312 nmol/kg, sc measured for 60 mins by tail-flick test relative to control. In kind it is functional. To be noted: 1 h.
Assay [5] has as its target T1, Delta-type opioid receptor (Homo sapiens, UniProt P41143). In words: Agonist activity at human DOR expressed in CHO-K1 cells co-expressing G-alpha15 by calcium mobilization assay. It counts as functional, cell-based.
Assay [6] deals with T2, Mu-type opioid receptor (Homo sapiens, UniProt P35372). Briefly: Agonist activity at human MOR expressed in CHO-K1 cells co-expressing G-alpha15 by calcium mobilization assay. In kind it is functional, cell-based.
T2 sequence (P35372 whole entry): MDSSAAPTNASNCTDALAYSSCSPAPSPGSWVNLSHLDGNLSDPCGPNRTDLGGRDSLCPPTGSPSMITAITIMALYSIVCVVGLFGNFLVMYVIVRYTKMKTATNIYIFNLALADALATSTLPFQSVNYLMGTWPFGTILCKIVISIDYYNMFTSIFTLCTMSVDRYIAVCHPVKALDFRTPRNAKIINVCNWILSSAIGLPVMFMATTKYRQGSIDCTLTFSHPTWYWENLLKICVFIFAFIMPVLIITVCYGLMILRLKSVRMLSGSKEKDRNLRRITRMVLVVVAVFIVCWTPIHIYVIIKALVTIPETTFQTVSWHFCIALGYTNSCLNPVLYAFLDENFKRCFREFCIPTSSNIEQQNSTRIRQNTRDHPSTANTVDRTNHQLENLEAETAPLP
For assay [7], the target named is T1, Delta-type opioid receptor. Briefly: Agonist activity at human DOR expressed in CHO-K1 cells co-expressing G-alpha15 by calcium mobilization assay relative to control. To be noted: filed as agonist. It counts as functional, cell-based. (In general: Calcium flux is commonly read through the fluorescence of an indicator in the cells.)
For assay [8], the target named is T2, Mu-type opioid receptor. In words: Agonist activity at human MOR expressed in CHO-K1 cells co-expressing G-alpha15 by calcium mobilization assay relative to control. In kind it is functional, cell-based. To be noted: filed as agonist.
For assay [9], the system named is Mus musculus. In words: Antinociceptive activity in Kunming mouse model assessed as latency of tail withdrawal at 144.4 nmol/kg, sc measured for 10 mins by tail-flick test relative to control. In kind it is functional.
The test system of assay [10] is Mus musculus. Briefly: Antinociceptive activity in Kunming mouse model assessed as latency of tail withdrawal at 144.4 nmol/kg, sc measured for 120 mins by tail-flick test relative to control. The conditions noted are these: 2 h. It counts as functional.
The target in assay [11] is Kappa-type opioid receptor (Homo sapiens, UniProt P41145). In words: Agonist activity at human KOR expressed in CHO-K1 cells co-expressing G-alpha15 upto 100 uM by calcium mobilization assay. In kind it is functional, cell-based.
Chain of Kappa-type opioid receptor (P41145 whole entry): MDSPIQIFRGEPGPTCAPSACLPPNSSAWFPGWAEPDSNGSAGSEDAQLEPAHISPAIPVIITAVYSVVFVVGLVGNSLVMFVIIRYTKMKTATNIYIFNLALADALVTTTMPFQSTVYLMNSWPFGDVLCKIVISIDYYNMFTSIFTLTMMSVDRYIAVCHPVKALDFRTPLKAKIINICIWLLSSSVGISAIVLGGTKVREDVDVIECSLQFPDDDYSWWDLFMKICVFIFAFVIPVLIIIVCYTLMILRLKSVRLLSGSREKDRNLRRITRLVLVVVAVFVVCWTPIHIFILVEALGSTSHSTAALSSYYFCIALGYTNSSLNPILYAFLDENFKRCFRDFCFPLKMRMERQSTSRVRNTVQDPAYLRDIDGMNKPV
The test system of assay [12] is Mus musculus. In words: Antinociceptive activity in Kunming mouse model assessed as latency of tail withdrawal at 144.4 nmol/kg, sc measured for 30 mins by tail-flick test relative to control. It counts as functional. To be noted: 0.5 h.
For assay [13], the system named is Mus musculus. In words: Antinociceptive activity in Kunming mouse model assessed as latency of tail withdrawal at 144.4 nmol/kg, sc measured for 60 mins by tail-flick test relative to control. It counts as functional. The conditions noted are these: 1 h.
Assay [14] relates to Mus musculus. Briefly: Antinociceptive activity in Kunming mouse model assessed as latency of tail withdrawal at 132.2 nmol/kg, sc measured for 10 mins by tail-flick test relative to control. In kind it is functional.
Assay [15] concerns Mus musculus. Briefly: Antinociceptive activity in Kunming mouse model assessed as latency of tail withdrawal at 132.2 nmol/kg, sc measured for 30 mins by tail-flick test relative to control. In kind it is functional. To be noted: 0.5 h.
Assay [16] concerns Mus musculus. Briefly: Antinociceptive activity in Kunming mouse model assessed as latency of tail withdrawal at 132.2 nmol/kg, sc measured for 60 mins by tail-flick test relative to control. In kind it is functional. To be noted: 1 h.
For assay [17], the system named is Mus musculus. Briefly: Antinociceptive activity in Kunming mouse model assessed as latency of tail withdrawal at 132.2 nmol/kg, sc measured for 120 mins by tail-flick test relative to control. To be noted: 2 h. In kind it is functional.
In assay [18] the test system is Mus musculus. In words: Antinociceptive activity in Kunming mouse model assessed as latency of tail withdrawal at 1404 nmol/kg, sc measured for 120 mins by tail-flick test relative to control. It counts as functional. The conditions noted are these: 2 h.
Assay [19] concerns Mus musculus. Briefly: Antinociceptive activity in Kunming mouse model assessed as latency of tail withdrawal at 1404 nmol/kg, sc measured for 10 mins by tail-flick test relative to control. In kind it is functional.
The test system of assay [20] is Mus musculus. Briefly: Antinociceptive activity in Kunming mouse model assessed as latency of tail withdrawal at 1404 nmol/kg, sc measured for 30 mins by tail-flick test relative to control. In kind it is functional. To be noted: 0.5 h.
Assay [21] relates to Mus musculus. In words: Antinociceptive activity in Kunming mouse model assessed as latency of tail withdrawal at 1404 nmol/kg, sc measured for 60 mins by tail-flick test relative to control. In kind it is functional. To be noted: 1 h.
Assay [22] has as its system Mus musculus. In words: Antinociceptive activity in Kunming mouse model assessed as latency of tail withdrawal at 1.4 nmol/kg, sc measured for 30 mins by tail-flick test relative to control. The conditions noted are these: 0.5 h. It counts as functional.
For assay [23], the system named is Mus musculus. In words: Antinociceptive activity in Kunming mouse model administered subcutaneously measured for 5 to 15 mins by acetic acid-induced writhing test. In kind it is functional. To be noted: route sc, time 5-15 min.
For assay [24], the system named is Mus musculus. In words: Antinociceptive activity in Kunming mouse model administered subcutaneously by tail-flick test. It counts as functional. The conditions noted are these: route sc.
Assay [25] concerns Mus musculus. In words: Antinociceptive activity in Kunming mouse model assessed as latency of tail withdrawal at 1.4 nmol/kg, sc measured for 60 mins by tail-flick test relative to control. The conditions noted are these: 1 h. In kind it is functional.
In assay [26] the test system is Mus musculus. In words: Antinociceptive activity in Kunming mouse model assessed as latency of tail withdrawal at 1.4 nmol/kg, sc measured for 10 mins by tail-flick test relative to control. It counts as functional.
For assay [27], the system named is Mus musculus. Briefly: Antinociceptive activity in Kunming mouse model administered orally by tail-flick test. In kind it is functional. To be noted: route po.
Assay [28] has as its system Mus musculus. Briefly: Antinociceptive activity in Kunming mouse model assessed as latency of tail withdrawal at 1.4 nmol/kg, sc measured for 120 mins by tail-flick test relative to control. It counts as functional. The conditions noted are these: 2 h.
Assay [29] has as its system Mus musculus. In words: Inhibition of gastrointestinal motility in fasted Kunming mouse model treated subcutaneously for 15 mins followed by charcoal-gum arabic treatment measured after 30 mins. It counts as functional. To be noted: 0.75 h, route sc, time 45 min.

T1 sequence (P41143 whole entry): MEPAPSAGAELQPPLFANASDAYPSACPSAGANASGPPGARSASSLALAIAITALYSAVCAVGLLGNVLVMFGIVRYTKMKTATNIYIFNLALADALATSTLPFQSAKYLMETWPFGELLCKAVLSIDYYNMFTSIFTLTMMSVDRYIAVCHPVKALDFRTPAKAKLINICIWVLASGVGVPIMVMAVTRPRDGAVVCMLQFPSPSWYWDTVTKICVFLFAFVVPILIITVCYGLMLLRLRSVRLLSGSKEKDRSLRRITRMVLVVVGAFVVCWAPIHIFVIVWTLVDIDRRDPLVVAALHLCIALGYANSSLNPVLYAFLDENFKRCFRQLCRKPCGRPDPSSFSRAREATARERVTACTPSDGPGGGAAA

In the case of `CCCC[C@@H]1NC(=O)[C@H](NC(=O)[C@@H](N)Cc2ccc(O)cc2)CCCCNC(=O)C[C@H](C(=O)N2CCC[C@H]2C(N)=O)NC(=O)[C@H](Cc2ccccc2)NC1=O`, the MPE with Mus musculus [1] was determined as 90%; in the assay on Mus musculus [2], 28%; with Mus musculus [3], 50.4%; in the assay with Mus musculus [4], 75.1%. Besides, the figures for the EC50 (in assay [5]; on Mu-type opioid receptor [6]) were 0.02 µM and 2.17 µM, respectively. The figures for the Emax (in [7]; on Mu-type opioid receptor [8]) were 83.9% and 88.6%, respectively.
For the molecule `NC(=O)[C@@H]1CCCN1C(=O)[C@H]1CC(=O)NCCCC[C@@H](NC(=O)[C@@H](N)Cc2ccc(O)cc2)C(=O)NCC(=O)N[C@@H](c2ccccc2)C(=O)N1`, the MPE amounted to 44.4% in the assay on Mus musculus [9], 44.4% in the assay with Mus musculus [10], 94.4% in the assay with Mus musculus [12] and 87.5% in the assay with Mus musculus [13]. In [11], the outcome was inactive.
In the case of `NC(=O)[C@H]1CCCN1C(=O)[C@@H]1CC(=O)NCCCC[C@@H](NC(=O)[C@@H](N)Cc2ccc(O)cc2)C(=O)NCC(=O)N[C@@H](Cc2ccc3ccccc3c2)C(=O)N1`, the MPE was determined as 78.1% in the assay on Mus musculus [14], 94.8% in the assay on Mus musculus [15], 76.9% in the assay with Mus musculus [16] and 26.8% in the assay on Mus musculus [17].
Consider `NC(=O)[C@H]1CCCN1C(=O)[C@@H]1CC(=O)NCCCC[C@@H](NC(=O)[C@@H](N)Cc2ccc(O)cc2)C(=O)NCC(=O)N[C@@H](CC2CCCCC2)C(=O)N1`, for which the MPE in the assay with Mus musculus [18] was 36.1%; with Mus musculus [19] it was 61.9%; in the assay on Mus musculus [20], 92.4%; in the assay with Mus musculus [21], 74.3%.
For the molecule `NC(=O)[C@H]1CCCN1C(=O)[C@@H]1CC(=O)NCCCC[C@@H](NC(=O)[C@@H](N)Cc2ccc(O)cc2)C(=O)NCC(=O)N[C@@H](Cc2ccc(F)cc2)C(=O)N1`, the MPE is on record as 93.1% in the assay on Mus musculus [22], 84.1% with Mus musculus [25], 59.2% with Mus musculus [26] and 34.3% in the assay with Mus musculus [28]. Besides, the ED50 (in general, the dose that gives a 50% effect, or the effect in half of the subjects) was determined as 0.0002 µmol/kg with Mus musculus [23], 8e-05 µmol/kg with Mus musculus [24], 9e-05 µmol/kg in the assay on Mus musculus [27] and 0.0044 µmol/kg in the assay with Mus musculus [29].

Source of the values: ChEMBL document CHEMBL5532665 (J Med Chem, 2024).
